PubChem BioAssay AID2060508 (Molecular Pharmacology Branch, DTP, NCI, 2025)

Test system: 454973-116-R2-J3-PDC spheroids, viability, % test/control
Assay: Anticancer human tumor 454973-116-R2-J3-PDC patient-derived pancreatic carcinoma cell line growth inhibition [GQUAD]
Conditions: spheroids with HUVEC and MSC; for IC50: curve of first compound; for viability, T/C: stronger effect = lower value
Method in brief: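 Viability of tumor cells grown as complex spheroids with endothelial and stromal cells, exposed to drug combinations. Top concentration at or near clinical Cmax (else 10 microM), diluted in half-log increments.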

[1] = second compound 0.0316 µM, first compound 0.0316 µM
[2] = second compound 0.0316 µM, first compound 0.1 µM
[3] = second compound 0.0316 µM, first compound 0.316 µM
[4] = second compound 0.0316 µM, first compound 1 µM
[5] = second compound 0.0316 µM, first compound 3.16 µM
[6] = second compound 0.0316 µM, first compound 10 µM
[7] = second compound 0.1 µM, first compound 0.0316 µM
[8] = second compound 0.1 µM, first compound 0.1 µM
[9] = second compound 0.1 µM, first compound 0.316 µM
[10] = second compound 0.1 µM, first compound 1 µM
[11] = second compound 0.1 µM, first compound 3.16 µM
[12] = second compound 0.1 µM, first compound 10 µM
[13] = second compound 0.316 µM, first compound 0.0316 µM
[14] = second compound 0.316 µM, first compound 0.1 µM
[15] = second compound 0.316 µM, first compound 0.316 µM
[16] = second compound 0.316 µM, first compound 1 µM
[17] = second compound 0.316 µM, first compound 3.16 µM
[18] = second compound 0.316 µM, first compound 10 µM
[19] = second compound 1 µM, first compound 0.0316 µM
[20] = second compound 1 µM, first compound 0.1 µM
[21] = second compound 1 µM, first compound 0.316 µM
[22] = second compound 1 µM, first compound 1 µM
[23] = second compound 1 µM, first compound 3.16 µM
[24] = second compound 1 µM, first compound 10 µM
[25] = second compound 3.16 µM, first compound 0.0316 µM
[26] = second compound 3.16 µM, first compound 0.1 µM
[27] = second compound 3.16 µM, first compound 0.316 µM
[28] = second compound 3.16 µM, first compound 1 µM
[29] = second compound 3.16 µM, first compound 3.16 µM
[30] = second compound 3.16 µM, first compound 10 µM
[31] = second compound 10 µM, first compound 0.0316 µM
[32] = second compound 10 µM, first compound 0.1 µM
[33] = second compound 10 µM, first compound 0.316 µM
[34] = second compound 10 µM, first compound 1 µM
[35] = second compound 10 µM, first compound 3.16 µM
[36] = second compound 10 µM, first compound 10 µM
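Further: spheroids exposed to compounds for seven days.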
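Wherever viability, T/C is given: 100% = DMSO vehicle control viability.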

## C#Cc1c(F)ccc2cc(O)cc(-c3ncc4c(N5CC6CCC(C5)N6)nc(OCC56CCCN5CC(F)C6)nc4c3F)c12 (stereo unspecified) + CN(C)c1ccc(Nc2c3ccc(NC(=O)CCN4CCCC4)cc3nc3cc(NC(=O)CCN4CCCC4)ccc23)cc1
Second compound 0.0316 µM
  IC50: 41.7 nM
Second compound 0.1 µM
  IC50: 52.3 nM
Second compound 0.316 µM
  IC50: 31.8 nM
Second compound 1 µM
  IC50: < 31.6 nM
Second compound 3.16 µM
  IC50: 39.7 nM
Second compound 10 µM
  IC50: < 31.6 nM
[1]
  viability, T/C: 54.1%
[2]
  viability, T/C: 37.5%
[3]
  viability, T/C: 28.1%
[4]
  viability, T/C: 20.2%
[5]
  viability, T/C: 20.2%
[6]
  viability, T/C: 15.8%
[7]
  viability, T/C: 56.4%
[8]
  viability, T/C: 41.9%
[9]
  viability, T/C: 24.3%
[10]
  viability, T/C: 22.4%
[11]
  viability, T/C: 21.2%
[12]
  viability, T/C: 16.9%
[13]
  viability, T/C: 50%
[14]
  viability, T/C: 35.7%
[15]
  viability, T/C: 23%
[16]
  viability, T/C: 21.4%
[17]
  viability, T/C: 17.4%
[18]
  viability, T/C: 15.7%
[19]
  viability, T/C: 49.4%
[20]
  viability, T/C: 33.1%
[21]
  viability, T/C: 26.9%
[22]
  viability, T/C: 16.9%
[23]
  viability, T/C: 18.6%
[24]
  viability, T/C: 18%
[25]
  viability, T/C: 53.8%
[26]
  viability, T/C: 36%
[27]
  viability, T/C: 26.9%
[28]
  viability, T/C: 23%
[29]
  viability, T/C: 21.3%
[30]
  viability, T/C: 12.1%
[31]
  viability, T/C: 44.9%
[32]
  viability, T/C: 26.7%
[33]
  viability, T/C: 17.5%
[34]
  viability, T/C: 13.4%
[35]
  viability, T/C: 3.6%
[36]
  viability, T/C: 0.44%

## CC(C)(O)C1CCC(Nc2ccc3ncc(-c4cccc(C(F)(F)F)c4)n3n2)CC1 (stereo unspecified) + Cc1cnc(CNC(=O)c2c(=O)c3ccc(N4CCCN(C)CC4)nc3n3c2sc2ccccc23)cn1
Second compound 0.0316 µM
  IC50: 1730 nM
Second compound 0.1 µM
  IC50: 1550 nM
Second compound 0.316 µM
  IC50: 1630 nM
Second compound 1 µM
  IC50: 1740 nM
Second compound 3.16 µM
  IC50: 1360 nM
Second compound 10 µM
  IC50: < 31.6 nM
[1]
  viability, T/C: 108%
[2]
  viability, T/C: 89.3%
[3]
  viability, T/C: 96.5%
[4]
  viability, T/C: 75%
[5]
  viability, T/C: 21.5%
[6]
  viability, T/C: 23.8%
[7]
  viability, T/C: 83.3%
[8]
  viability, T/C: 83.8%
[9]
  viability, T/C: 85.4%
[10]
  viability, T/C: 65.4%
[11]
  viability, T/C: 22%
[12]
  viability, T/C: 27.6%
[13]
  viability, T/C: 82.8%
[14]
  viability, T/C: 69.2%
[15]
  viability, T/C: 76.2%
[16]
  viability, T/C: 64.3%
[17]
  viability, T/C: 28.9%
[18]
  viability, T/C: 32.1%
[19]
  viability, T/C: 76.4%
[20]
  viability, T/C: 65.6%
[21]
  viability, T/C: 65.1%
[22]
  viability, T/C: 66.5%
[23]
  viability, T/C: 31.9%
[24]
  viability, T/C: 32.5%
[25]
  viability, T/C: 66.9%
[26]
  viability, T/C: 65.2%
[27]
  viability, T/C: 63.9%
[28]
  viability, T/C: 59.8%
[29]
  viability, T/C: 21.3%
[30]
  viability, T/C: 25.9%
[31]
  viability, T/C: 0.3%
[32]
  viability, T/C: 17.6%
[33]
  viability, T/C: 49%
[34]
  viability, T/C: 0.58%
[35]
  viability, T/C: 0.43%
[36]
  viability, T/C: 0.23%

## CCc1c2c(nc3ccc(O)cc13)-c1cc3c(c(=O)n1C2)COC(=O)[C@]3(O)CC + CN(C)c1ccc(Nc2c3ccc(NC(=O)CCN4CCCC4)cc3nc3cc(NC(=O)CCN4CCCC4)ccc23)cc1
Second compound 0.0316 µM
  IC50: 1.67 nM
Second compound 0.1 µM
  IC50: 1.71 nM
Second compound 0.316 µM
  IC50: 1.52 nM
Second compound 1 µM
  IC50: 1.68 nM
Second compound 3.16 µM
  IC50: 1.63 nM
Second compound 10 µM
  IC50: 1.48 nM
Second compound 0.0316 µM, first compound 0.000999 µM
  viability, T/C: 67.9%
Second compound 0.0316 µM, first compound 0.00316 µM
  viability, T/C: 23.9%
Second compound 0.0316 µM, first compound 0.00999 µM
  viability, T/C: 21.6%
[1]
  viability, T/C: 15.2%
Second compound 0.0316 µM, first compound 0.0999 µM
  viability, T/C: 6.24%
[3]
  viability, T/C: 5.45%
Second compound 0.1 µM, first compound 0.000999 µM
  viability, T/C: 68.1%
Second compound 0.1 µM, first compound 0.00316 µM
  viability, T/C: 25.9%
Second compound 0.1 µM, first compound 0.00999 µM
  viability, T/C: 21.8%
[7]
  viability, T/C: 14.1%
Second compound 0.1 µM, first compound 0.0999 µM
  viability, T/C: 6.39%
[9]
  viability, T/C: 4.95%
Second compound 0.316 µM, first compound 0.000999 µM
  viability, T/C: 61.4%
Second compound 0.316 µM, first compound 0.00316 µM
  viability, T/C: 27.2%
Second compound 0.316 µM, first compound 0.00999 µM
  viability, T/C: 22.3%
[13]
  viability, T/C: 12.3%
Second compound 0.316 µM, first compound 0.0999 µM
  viability, T/C: 7.81%
[15]
  viability, T/C: 5.5%
Second compound 1 µM, first compound 0.000999 µM
  viability, T/C: 65.6%
Second compound 1 µM, first compound 0.00316 µM
  viability, T/C: 27.5%
Second compound 1 µM, first compound 0.00999 µM
  viability, T/C: 23.8%
[19]
  viability, T/C: 11.9%
Second compound 1 µM, first compound 0.0999 µM
  viability, T/C: 8.79%
[21]
  viability, T/C: 5.09%
Second compound 3.16 µM, first compound 0.000999 µM
  viability, T/C: 62.5%
Second compound 3.16 µM, first compound 0.00316 µM
  viability, T/C: 30.7%
Second compound 3.16 µM, first compound 0.00999 µM
  viability, T/C: 24.4%
[25]
  viability, T/C: 13.8%
Second compound 3.16 µM, first compound 0.0999 µM
  viability, T/C: 11.1%
[27]
  viability, T/C: 5.7%
Second compound 10 µM, first compound 0.000999 µM
  viability, T/C: 59.1%
Second compound 10 µM, first compound 0.00316 µM
  viability, T/C: 31.2%
Second compound 10 µM, first compound 0.00999 µM
  viability, T/C: 24.9%
[31]
  viability, T/C: 19.7%
Second compound 10 µM, first compound 0.0999 µM
  viability, T/C: 12.6%
[33]
  viability, T/C: 9.24%
